Experimental data taken from PMC12707362, “Targeting Aurora Kinases as Essential Cell‐Cycle Regulators to Deliver Multi‐Stage Antimalarials Against Plasmodium Falciparum” (Angewandte Chemie (International Ed. in English), 2025).
Where two headings read alike, the source gives them in different places.

Legend:
[1] = tested on: pool of barcoded drug-resistant P. falciparum parasites (Dd2 and 3D7 backgrounds); format: cell-based, Plasmodium falciparum; settings: 3xIC50
Experimental: The pool consisted of 52 lines (Supplementary File S2) in both the Dd2 and 3D7 backgrounds, including wild-type, that were barcoded at the pfpare locus (PF3D7_0709700)^[18], with unique 11-bp barcode sequences. The pool (triplicate cultures of 1 mL) was exposed to 3 xIC50 of each test compound, including the positive control compound halofuginone that targets prolyl tRNA synthetase. Growth of the pool was measured every 2–3 days by flow cytometry (Beckman CytoFlex 5), staining with 1xSYBR Green I and 200 nM MitoTracker Deep Red, and parasitemia maintained within a range <5% parasitemia. At day 14, samples were harvested, lysed with 0.05% saponin and parasite pellets collected. Barcodes were amplified by PCR and quantified by sequencing using an Oxford Nanopore minION. The change in barcode proportion (log2 fold change, LFC) was measured relative to the no-drug control, with LFC>2.5 indicating cross-resistance.

PfNF54 schizonts = test: Stage-specific morphological evaluation, nuclei count per schizont; format: cell-based, Plasmodium falciparum; settings: TAE684 3xIC50, hesperadin IC99; n = 30
Experimental: Nuclei content was detected by consecutive staining with SYBR Green I (DNA fluorescence), detected in the FITC channel.
To determine the stage specificity during asexual intra-erythrocytic development, P. falciparum NF54 parasites were synchronised using 5% D-Sorbitol to obtain a >90% ring-stage population (6–10 h post-invasion, hpi). […] The rate of activity and stage-specificity was monitored morphologically using Giemsa-stained thin smears. Asexual intra-erythrocytic stage parasites were treated at ring, early/late trophozoite, and schizont stages, sampling every 12 h over a 48-hour period. Images were captured using a Nikon Eclipse 50i light microscope adapted with a Nikon camera (Nikon DS-Fi1) and NIS-Elements software. […] Parasite progression was monitored every 12 h over a 48-h period using flow cytometry, as described in^[11]. The IC50 speed assay was conducted as described in^[12]. Briefly, unsynchronised P. falciparum NF54 asexual proliferation was determined using a SYBR Green I proliferation-based assay and expressed as IC50 values as described earlier. Four incubation times were employed for each inhibitor: 96 (standard assay time), 72, 48 and 24 h. IC50 values were obtained from corrected dose-response curves using Graph-Pad Prism v10.5.

In the case of `COc1cc(N2CCC(N3CCN(C)CC3)CC2)ccc1Nc1ncc(Cl)c(Nc2ccccc2S(=O)(=O)C(C)C)n1` [TAE684, NVP-TAE684], the “barcode population Day 14” value ([1]; line 3D7 (Wild type)) is reported as 5.080, the “barcode population Day 14” value ([1]; line 3D7 ABCI3 R2180P) is reported as 2.690 and the “barcode population Day 14” value ([1]; line 3D7 ACS10 M300I) is reported as 3.200. For the same compound, the “barcode population Day 14” value ([1]; line 3D7 ACS11 D648Y) was 0.620, the “barcode population Day 14” value ([1]; line 3D7 ATP2 CNV2) was 2.100 and the “barcode population Day 14” value ([1]; line 3D7 DHFR-TS G378E) was 0.990. For the same compound, the “barcode population Day 14” value ([1]; line 3D7 DHFR-TS I403L) was 3.400, the “barcode population Day 14” value ([1]; line 3D7 FTb A515T) was 1.770 and the “barcode population Day 14” value ([1]; line 3D7 MDR2 K840N) was 1.670. The “barcode population Day 14” value ([1]; line 3D7 NCR1 A1108T) was 2.230, the “barcode population Day 14” value ([1]; line Dd2 (Wild type)) was 5.040 and the “barcode population Day 14” value ([1]; line Dd2-pol-delta D308A-E310A) was 0.01. The “barcode population Day 14” value ([1]; line Dd2 ATP4 G358S) was 1.130, the “barcode population Day 14” value ([1]; line Dd2 ATP4 L927V) was 1.370 and the “barcode population Day 14” value ([1]; line Dd2 ATP4 Q172H) was 3.070. The “barcode population Day 14” value ([1]; line Dd2 AcAS A597V) was 0.650, the “barcode population Day 14” value ([1]; line Dd2 AcAS T648M) was 2.430 and the “barcode population Day 14” value ([1]; line Dd2 AsnRS R487S) was 1.530. The “barcode population Day 14” value ([1]; line Dd2 CARL I1139K-a) was 0.010, the “barcode population Day 14” value ([1]; line Dd2 CARL I1139K-b) was 0.230 and the “barcode population Day 14” value ([1]; line Dd2 CARL V1103L) was 0.680. For the same compound, the “barcode population Day 14” value ([1]; line Dd2 CLK3 H259P) was 1.590, the “barcode population Day 14” value ([1]; line Dd2 CPSF Y408S E) was 1.340 and the “barcode population Day 14” value ([1]; line Dd2 CPSF Y408S S) was 0.580. The “barcode population Day 14” value ([1]; line Dd2 CRT M343L) was 2.390, the “barcode population Day 14” value ([1]; line Dd2 CSC1 L800P) was 1.280 and the “barcode population Day 14” value ([1]; line Dd2 DHFR-TS S216R) was 1.710. The “barcode population Day 14” value ([1]; line Dd2 DHODH C276Y) was 3.290, the “barcode population Day 14” value ([1]; line Dd2 DHODH F227I) was 0.650 and the “barcode population Day 14” value ([1]; line Dd2 DHODH I263F) was 0.120. For the same compound, the “barcode population Day 14” value ([1]; line Dd2 DHODH L531F) was 0.480, the “barcode population Day 14” value ([1]; line Dd2 GGPPS S228T) was 0.800 and the “barcode population Day 14” value ([1]; line Dd2 HSP90 A41S) was 2.760. The “barcode population Day 14” value ([1]; line Dd2 IleRS E180D) was 2.660, the “barcode population Day 14” value ([1]; line Dd2 IleRS L810F) was 1.180 and the “barcode population Day 14” value ([1]; line Dd2 IleRS V500A) was 0.960. For the same compound, the “barcode population Day 14” value ([1]; line Dd2 MCP D195N) was 0.270, the “barcode population Day 14” value ([1]; line Dd2 MCP P214T) was 5.790 and the “barcode population Day 14” value ([1]; line Dd2 PI4K S743F+H1484Y) was 1.350. For the same compound, the “barcode population Day 14” value ([1]; line Dd2 PI4K S1320L+L1418F) was 1.960, the “barcode population Day 14” value ([1]; line Dd2 PROTB5 A20V) was 1.090 and the “barcode population Day 14” value ([1]; line Dd2 PROTB5 M45I) was 1.500. For the same compound, the “barcode population Day 14” value ([1]; line Dd2 ProRS L482H) was 6.690, the “barcode population Day 14” value ([1]; line Dd2 QRP1 D1863Y) was 5.420 and the “barcode population Day 14” value ([1]; line Dd2 TyrRS S234C) was 2.590. The “barcode population Day 14” value ([1]; line Dd2 UDP-GT F37V) was 0.250, the “barcode population Day 14” value ([1]; line Dd2 cytBC1 G33V) was 1.410 and the “barcode population Day 14” value ([1]; line Dd2 cytBC1 V284L) was 1.550. For the same compound, the “barcode population Day 14” value ([1]; line Dd2 eEF2 L755F) was 1.200, the “barcode population Day 14” value ([1]; line Dd2 eEF2 Y186N) was 1.260 and the “barcode population Day 14” value ([1]; line Dd2 kelch13 C580C) was 2.860. For the same compound, the “barcode population Day 14” value ([1]; line Dd2 kelch13 C580Y) was 2.440, the “barcode population Day 14” value ([1]; line Dd2 kelch13 R539T) was 0.670 and the “number of daughter merozoites per schizont” value (PfNF54 schizonts) was “significant reduction in the number of daughter merozoites”.
